Laboratory results as given in PMC10645073, “Interaction of gallium, indium and vanadyl diacetylcurcumin complexes with lysozyme: mechanistic aspects and evaluation of antiamyloidogenic activity” (Royal Society Open Science, 2023).

Legend:
Aβ42 = conditions: copper-induced Aβ42 cross-linking; cited from earlier work
mouse lymphoma cells = system: mouse lymphoma cells; parameters: method as in PMID 16171869; conditions: read-out: IC50 cytotoxicity; cited from earlier work
[1] = molecular target: T1, hen egg white lysozyme (HEWL) (Gallus gallus, UniProt P00698); experiment: Intrinsic fluorescence quenching of HEWL (Stern-Volmer, double logarithmic and van't Hoff analysis); type: binding; conditions: for KSV (Stern-Volmer quenching constant): HEWL 3 µM; for kq (bimolecular quenching rate constant): kq = KSV/τ0, τ0 10^−8 s
T1 construct: whose 129 amino acid residues are linked together by four disulfide bridges to form a single polypeptide chain; purchased Sigma-Aldrich L6876; host or cells: hen egg white (natural source, per the protein's name)
Experimental: The intrinsic fluorescence spectra of HEWL (3 µM) in the absence and presence of Ga(DAC)3, In(DAC)3 and VO(DAC)2 complexes were collected using a Varian Cary Eclipse fluorescence spectrophotometer equipped with a 10 mm quartz cell by adjusting the excitation wavelength to 295 nm and setting the width of both excitation and emission slits at 5 nm. After adding the mentioned concentrations of the metal complexes of diacetylcurcumin to HEWL solution, the samples were scanned in the wavelength range of 300–500 nm. Corrections were made for the inner filter effect on the fluorescence spectra according to the following equation: Fcor=Fobs×10^(Aex+Aem)/2, where Fcor is corrected fluorescence intensity, Fobs is the observed (uncorrected) fluorescence intensity, Aex is the absorbance at the fluorescence excitation wavelength and Aem is the absorbance at the selected fluorescence emission wavelength.
The fluorescence quenching process of HEWL in the presence of three metal complexes of diacetylcurcumin can be quantified according to the well-known Stern-Volmer equation:3.1 F0/F=1+KSV[Q]=1+kqτ0[Q],
where F0 and F represent the intrinsic emission intensities of HEWL fluorophores, respectively, in the absence and presence of the metal complexes of diacetylcurcumin, and [Q] is the molar concentration of quencher. KSV, kq and τ0 denote the Stern-Volmer quenching constant, bimolecular quenching rate constant, and the average lifetime of fluorophore without quencher, respectively. The value of KSV, as a parameter of the sensitivity of the fluorophore to a quencher, can be estimated from the slope of the linear plot of F0/F as a function of [Q] (figure 2d,e,f; electronic supplementary material, figure S1). To obtain more accurate quantification of fluorescence data, the total area of the emission fluorescence peaks (S0 and S) was applied instead of the emission fluorescence intensities (F0 and F). The fluorescence quenching phenomenon can be generally divided into two distinct classes: static quenching and dynamic quenching. Owing to the reciprocal and direct correlations between the KSV parameter and temperature, respectively, for static and dynamic quenching, the observed trend in the KSV value versus temperature can be used to distinguish these mechanisms from each other. In dynamic quenching, an increase in temperature leads to faster diffusion of molecules by which weakly bound nonfluorescent complexes are further dissociated, and the value of KSV increases. From the data recorded in table 1, it can be seen that the KSV value of HEWL/Ga(DAC)3 and HEWL/In(DAC)3 systems decreases as temperature increases, while it increases with increasing temperature for the HEWL/VO(DAC)2 system. […] Considering a lifetime value of 10^−8 s for the native fluorophores, [27] the equation kq = KSV/τ0 gives the kq values greater than the diffusion-limited quenching value of 2.0 × 10 ^+ 10 M^−1 s^−1 for all systems.
Assuming that all the binding sites of HEWL are identical and independent and an equilibrium interaction is established between HEWL and each of the metal complexes of diacetylcurcumin, the fluorescence quenching process can be further analysed by the following double logarithmic equation:3.2 log(F0−F/F)=logKb+nlog[Q], where Kb and n represent the binding constant and number of binding sites on each HEWL molecule, respectively. Plotting log[(F0 − F)/F] versus log[Q] produces a straight line whose slope and intercept can be used respectively to estimate the values of n and Kb (electronic supplementary material, figures S2A, S2B, S2C and S3). […] In other words, the resulting bioconjugates are the product of the interaction between HEWL and the metal complexes of diacetylcurcumin with a 1 : 1 stoichiometry. […]

[2] = molecular target: T1, hen egg white lysozyme (HEWL); experiment: Synchronous fluorescence spectroscopy of HEWL; type: binding; conditions: Δλ = 60 nm
Experimental: To obtain synchronous fluorescence spectra, simultaneous scanning of excitation and emission monochromators was performed in such a way as to maintain a constant wavelength interval between them. The changes in the molecular microenvironment of tyrosine and tryptophan residues of HEWL were monitored by fixing the wavelength interval (Δλ = λem − λex) individually at 15 and 60 nm, respectively. The concentrations of HEWL and three metal complexes of diacetylcurcumin were the same as those mentioned for the intrinsic fluorescence spectroscopy.
To investigate the effect of the metal complexes of diacetylcurcumin on the conformation of tyrosine and tryptophan residues of HEWL, synchronous fluorescence spectra of HEWL were recorded alone and in the presence of the metal complexes (electronic supplementary material, figure S5). By fixing the Δλ value, i.e. the difference between excitation and emission wavelengths, at 15 and 60 nm, synchronous fluorescence spectroscopy provides useful information on the microenvironmental changes of tyrosine and tryptophan residues of proteins, respectively. As shown in the electronic supplementary material, figure S5, all three metal complexes of diacetylcurcumin strongly quench the emission fluorescence of HEWL at both 15 and 60 nm. […] At Δλ = 15 nm, no shift in the emission maximum of HEWL is observed, whereas at Δλ = 60 nm, a 2 nm blue shift is observed in the emission spectrum of tryptophan residues of the protein after the interaction with the metal complexes of diacetylcurcumin except for the VO(DAC)2 complex. […] Overall, it can be concluded that the formation of HEWL/metal complex bioconjugates is associated with the binding of three metal complexes of diacetylcurcumin to both tyrosine and tryptophan residues in which the conformational changes can occur only around the tryptophan residues of the protein. It should be noted that the reduction in the polarity of the microregions surrounding tryptophan residues of the protein has already been observed by the intrinsic emission fluorescence titrations (see §3.1.1.).

## CRANAD-17
Aβ42
  effect on Aβ amyloid formation: considerably reduces Aβ amyloid formation

## COc1cc(C=CC(=O)C=C([O-])C=Cc2ccc(OC(C)=O)c(OC)c2)ccc1OC(C)=O.COc1cc(C=CC(=O)C=C([O-])C=Cc2ccc(OC(C)=O)c(OC)c2)ccc1OC(C)=O.COc1cc(C=CC(=O)C=C([O-])C=Cc2ccc(OC(C)=O)c(OC)c2)ccc1OC(C)=O.[Ga+3] [Ga(DAC)3, gallium diacetylcurcumin]
Mouse lymphoma cells
  IC50: 25 to 30 µM
[1]; T 293 K
  n (number of binding sites on each HEWL molecule): (0.92 ± 0.02)
  ΔG^0 (Gibbs free energy change of binding): -5.081 ± 0.139 kcal/mol
  KSV (Stern-Volmer quenching constant): (1.46 ± 0.02) × 10^+4 M^−1
  kq (bimolecular quenching rate constant): (1.46 ± 0.02) × 10^+12 M^−1 s^−1
[1]; T 303 K
  n (number of binding sites on each HEWL molecule): (0.80 ± 0.02)
  ΔG^0 (Gibbs free energy change of binding): -5.057 ± 0.139 kcal/mol
  KSV (Stern-Volmer quenching constant): (1.30 ± 0.01) × 10^+4 M^−1
  kq (bimolecular quenching rate constant): (1.30 ± 0.01) × 10^+12 M^−1 s^−1
[1]; T 308 K
  n (number of binding sites on each HEWL molecule): (0.89 ± 0.02)
  ΔG^0 (Gibbs free energy change of binding): -5.045 ± 0.139 kcal/mol
  KSV (Stern-Volmer quenching constant): (1.25 ± 0.01) × 10^+4 M^−1
  kq (bimolecular quenching rate constant): (1.25 ± 0.01) × 10^+12 M^−1 s^−1
[1]; excitation 295 nm, emission maximum 345 nm
  blue shift of HEWL emission maximum on quenching: 4 nm
[1]; from KSV versus temperature and kq
  fluorescence quenching mechanism: static mechanism
[1]; from signs of ΔH^0 and ΔS^0
  main forces / modes of interaction stabilizing the bioconjugate: van der Waals interactions and hydrogen bonds
[1]; summary of table 1
  binding constant, order of magnitude: 10^+3 M^−1
[1]; van't Hoff plot over 293–308 K
  ΔH^0 (enthalpy change of binding): -5.817 ± 0.0406 kcal/mol
  ΔS^0 (entropy change of binding): −10.50 ± 0.55 J mol^−1 K^−1
[2]
  microenvironment of tryptophan residues of HEWL: more hydrophobic

## COc1cc(C=CC(=O)CC(=O)C=Cc2ccc(O)c(OC)c2)ccc1O [curcumin, 1,7-bis(4-hydroxy-3-methoxyphenyl)-1,6-heptadiene-3,5-dione]
Mouse lymphoma cells
  IC50: 25 to 30 µM
